Test results: US20100256107A1, “PREPARATION COMPOSITION” (Dainippon Sumitomo Pharma Co., Ltd., priority 2007, published 2010)

Tests used:
[1] = Stability in an aqueous solution formulation containing sodium carbonate (HPLC); assay type: physicochemical
Protocol: Multiple vials were prepared, and Compound A and sodium carbonate in amounts indicated in Table 9 were weighed and put in each vial. A physiological saline (100 ml) was added to each vial, amounts Compound A and its degradation, Compounds B and C were measured just after dissolving and after preserving for 6 hours at 25° C.
HPLC was Measured Under the Same Conditions as Test Example 1.
The numbers described in columns of “just after dissolution” and “after preservation for 6 hours at 25° C.” on Table 10 show area % per total peaks which appear until 55 minutes under the above HPLC conditions.

[2] = Control of coloration in an aqueous solution formulation containing sodium carbonate (absorbance 380 nm); assay type: physicochemical; settings: for change in absorbance, just after dissolution / change in absorbance, preservation time 1 hr / change in absorbance, preservation time 2 hr / change in absorbance, preservation time 3 hr / change in absorbance, preservation time 4 hr / change in absorbance, preservation time 5 hr / change in absorbance, preservation time 6 hr: 25° C., 380 nm
Protocol: Multiple vials were prepared, and sodium carbonate, Compound A and imipenem in amounts indicated in Table 14 were weighed, respectively and each mixture was put in each vial. A physiological saline (100 ml) was added to each vial to be dissolved. Coloration (change of color) just after dissolution and when the solution was preserved at one hour intervals for 6 hours at 25° C. were measured by absorbency on Compound A and imipenem.
• Condition of measurement by spectrophotometer • cell: quartz 12.5 mm×12.5 mm×45 mm, capacity 3.5 ml • wavelength: 380 nm • measurement temperature: 25° C. • instrument: UV-2200A (Shimadzu)
The numbers described in columns of “just after dissolution” and each “preservation time” on Table 15 show values of change in absorbance just after dissolution when measured under the above conditions.

[3] = Comp. A 0.5 g/vial + sodium carbonate 0.0 mg/vial in physiological saline 100 ml
[4] = Comp. A 0.5 g/vial + sodium carbonate 1.0 mg/vial in physiological saline 100 ml
[5] = Comp. A 0.5 g/vial + sodium carbonate 1.5 mg/vial in physiological saline 100 ml
[6] = Comp. A 0.5 g/vial + sodium carbonate 2.0 mg/vial in physiological saline 100 ml
[7] = Comp. A 0.5 g/vial + sodium carbonate 2.5 mg/vial in physiological saline 100 ml
[8] = Comp. A 0.5 g/vial + sodium carbonate 3.0 mg/vial in physiological saline 100 ml
[9] = Comp. A 0.5 g/vial + sodium carbonate 3.5 mg/vial in physiological saline 100 ml
[10] = Comp. A 0.5 g/vial + sodium carbonate 4.0 mg/vial in physiological saline 100 ml
[11] = Comp. A 0.5 g/vial + sodium carbonate 5.0 mg/vial in physiological saline 100 ml
[12] = 0.5 g/vial + sodium carbonate 0.0 mg/vial in physiological saline 100 ml
[13] = 0.5 g/vial + sodium carbonate 1.0 mg/vial in physiological saline 100 ml
[14] = 0.5 g/vial + sodium carbonate 1.5 mg/vial in physiological saline 100 ml
[15] = 0.5 g/vial + sodium carbonate 2.0 mg/vial in physiological saline 100 ml
[16] = 0.5 g/vial + sodium carbonate 2.5 mg/vial in physiological saline 100 ml
[17] = 0.5 g/vial + sodium carbonate 3.0 mg/vial in physiological saline 100 ml

C[C@H]1C=C(c2csc(SC3=C(C(=O)O)N4C(=O)[C@H]([C@@H](C)O)[C@H]4[C@H]3C)n2)CN1 [Compound A, (4R,5S,6S)-6-[(1R)-1-hydroxyethyl]-4-methyl-3-({4-[(5S)-5-methyl-2,5-dihydro-1H-pyrrol-3-yl]-1,3-thiazol-2-yl}sulfanyl)-7-oxo-1-azabicyclo[3.2.0]hept-2-ene-2-carboxylic acid]
Comp. A after preservation for 6 hrs. 25° C. [1, 3]: 96.3 area % | Comp. A just after dissolution [1, 3]: 99.0 area % | Comp. B after preservation for 6 hrs. 25° C. [1, 3]: 2.6 area % | Comp. B just after dissolution [1, 3]: 0.5 area % | Comp. C after preservation for 6 hrs. 25° C. [1, 3]: 0.4 area % | Comp. C just after dissolution [1, 3]: 0.0 area % | Comp. A after preservation for 6 hrs. 25° C. [1, 4]: 96.7 area % | Comp. A just after dissolution [1, 4]: 99.0 area % | Comp. B after preservation for 6 hrs. 25° C. [1, 4]: 2.6 area % | Comp. B just after dissolution [1, 4]: 0.6 area % | Comp. C after preservation for 6 hrs. 25° C. [1, 4]: 0.2 area % | Comp. C just after dissolution [1, 4]: 0.0 area % | Comp. A after preservation for 6 hrs. 25° C. [1, 5]: 96.5 area % | Comp. A just after dissolution [1, 5]: 98.9 area % | Comp. B after preservation for 6 hrs. 25° C. [1, 5]: 2.8 area % | Comp. B just after dissolution [1, 5]: 0.5 area % | Comp. C after preservation for 6 hrs. 25° C. [1, 5]: ≤ 0.1 area % | Comp. C just after dissolution [1, 5]: 0.0 area % | Comp. C after preservation for 6 hrs. 25° C. ([1]; Comp. A 0.5 g/vial + sodium carbonate 1.5 mg/vial in physiological saline 100 ml, listed as Comp. A): 0.0 area % | Comp. A after preservation for 6 hrs. 25° C. [1, 6]: 96.2 area % | Comp. A just after dissolution [1, 6]: 99.0 area % | Comp. B after preservation for 6 hrs. 25° C. [1, 6]: 3.0 area % | Comp. B just after dissolution [1, 6]: 0.5 area % | Comp. C after preservation for 6 hrs. 25° C. [1, 6]: 0.0 area % | Comp. C just after dissolution [1, 6]: 0.0 area % | Comp. A after preservation for 6 hrs. 25° C. [1, 7]: 96.0 area % | Comp. A just after dissolution [1, 7]: 98.9 area % | Comp. B after preservation for 6 hrs. 25° C. [1, 7]: 3.2 area % | Comp. B just after dissolution [1, 7]: 0.5 area % | Comp. C after preservation for 6 hrs. 25° C. [1, 7]: 0.0 area % | Comp. C just after dissolution [1, 7]: 0.0 area % | Comp. A after preservation for 6 hrs. 25° C. [1, 8]: 95.7 area % | Comp. A just after dissolution [1, 8]: 99.0 area % | Comp. B after preservation for 6 hrs. 25° C. [1, 8]: 3.6 area % | Comp. B just after dissolution [1, 8]: 0.5 area % | Comp. C after preservation for 6 hrs. 25° C. [1, 8]: 0.0 area % | Comp. C just after dissolution [1, 8]: 0.0 area % | Comp. A after preservation for 6 hrs. 25° C. [1, 9]: 95.4 area % | Comp. A just after dissolution [1, 9]: 98.9 area % | Comp. B after preservation for 6 hrs. 25° C. [1, 9]: 3.8 area % | Comp. B just after dissolution [1, 9]: 0.5 area % | Comp. C after preservation for 6 hrs. 25° C. [1, 9]: 0.0 area % | Comp. C just after dissolution [1, 9]: 0.0 area % | Comp. A after preservation for 6 hrs. 25° C. [1, 10]: 95.1 area % | Comp. A just after dissolution [1, 10]: 99.0 area % | Comp. B after preservation for 6 hrs. 25° C. [1, 10]: 4.1 area % | Comp. B just after dissolution [1, 10]: 0.5 area % | Comp. C after preservation for 6 hrs. 25° C. [1, 10]: 0.0 area % | Comp. C just after dissolution [1, 10]: 0.0 area % | Comp. A after preservation for 6 hrs. 25° C. [1, 11]: 94.8 area % | Comp. A just after dissolution [1, 11]: 98.9 area % | Comp. B after preservation for 6 hrs. 25° C. [1, 11]: 4.5 area % | Comp. B just after dissolution [1, 11]: 0.6 area % | Comp. C after preservation for 6 hrs. 25° C. [1, 11]: 0.0 area % | Comp. C just after dissolution [1, 11]: 0.0 area % | reduction of amount of Compound A ([1]; sodium carbonate increased to 5 mg from 2 mg per Compound A 500 mg, 6 hours at 25° C.): 1.4% | coloration by the visual inspection compared with a solution just after dissolution ([2]; 1.5 mg additive per 500 mg (printed sodium bicarbonate; Table 15: sodium carbonate), 6 hours at 25° C.): coloration was not observed by the visual inspection | change in absorbance, just after dissolution [2, 12]: 0.00 Abs | change in absorbance, preservation time 1 hr [2, 12]: 0.01 Abs | change in absorbance, preservation time 2 hr [2, 12]: 0.03 Abs | change in absorbance, preservation time 3 hr [2, 12]: 0.05 Abs | change in absorbance, preservation time 4 hr [2, 12]: 0.07 Abs | change in absorbance, preservation time 5 hr [2, 12]: 0.11 Abs | change in absorbance, preservation time 6 hr [2, 12]: 0.13 Abs | change in absorbance, just after dissolution [2, 13]: 0.00 Abs | change in absorbance, preservation time 1 hr [2, 13]: 0.00 Abs | change in absorbance, preservation time 2 hr [2, 13]: 0.00 Abs | change in absorbance, preservation time 3 hr [2, 13]: 0.01 Abs | change in absorbance, preservation time 4 hr [2, 13]: 0.02 Abs | change in absorbance, preservation time 5 hr [2, 13]: 0.03 Abs | change in absorbance, preservation time 6 hr [2, 13]: 0.04 Abs | change in absorbance, just after dissolution [2, 14]: 0.00 Abs | change in absorbance, preservation time 1 hr [2, 14]: 0.00 Abs | change in absorbance, preservation time 2 hr [2, 14]: 0.00 Abs | change in absorbance, preservation time 3 hr [2, 14]: 0.00 Abs | change in absorbance, preservation time 4 hr [2, 14]: 0.00 Abs | change in absorbance, preservation time 5 hr [2, 14]: 0.01 Abs | change in absorbance, preservation time 6 hr [2, 14]: 0.02 Abs | change in absorbance, just after dissolution [2, 15]: 0.00 Abs | change in absorbance, preservation time 1 hr [2, 15]: 0.00 Abs | change in absorbance, preservation time 2 hr [2, 15]: 0.00 Abs | change in absorbance, preservation time 3 hr [2, 15]: 0.00 Abs | change in absorbance, preservation time 4 hr [2, 15]: 0.00 Abs | change in absorbance, preservation time 5 hr [2, 15]: 0.00 Abs | change in absorbance, preservation time 6 hr [2, 15]: 0.01 Abs | change in absorbance, just after dissolution [2, 16]: 0.00 Abs | change in absorbance, preservation time 1 hr [2, 16]: 0.00 Abs | change in absorbance, preservation time 2 hr [2, 16]: 0.00 Abs | change in absorbance, preservation time 3 hr [2, 16]: 0.00 Abs | change in absorbance, preservation time 4 hr [2, 16]: 0.00 Abs | change in absorbance, preservation time 5 hr [2, 16]: 0.00 Abs | change in absorbance, preservation time 6 hr [2, 16]: 0.00 Abs | change in absorbance, just after dissolution [2, 17]: 0.00 Abs | change in absorbance, preservation time 1 hr [2, 17]: 0.00 Abs | change in absorbance, preservation time 2 hr [2, 17]: 0.00 Abs | change in absorbance, preservation time 3 hr [2, 17]: 0.00 Abs | change in absorbance, preservation time 4 hr [2, 17]: 0.00 Abs | change in absorbance, preservation time 5 hr [2, 17]: 0.00 Abs | change in absorbance, preservation time 6 hr [2, 17]: 0.00 Abs | suppression of coloration of the solution ([2]; at least 1.5 mg (0.003 part by weight) of sodium carbonate per 500 mg): observed
